Values after ≈ are worked out from the molar mass of the structure shown. Bridge positions count the residues as written; N and C are the ends. Square brackets hold non-standard residues; d marks the D form. Peptide text beside a SMILES is read from it. * marks the point of attachment. Heptanoyl(6-Me) = CC(C)CCCCC(=O)*; Sulfomethyl = O=S(=O)(O)C*; Nonanoyl = CCCCCCCCC(=O)*; X1 = CC[C@H](C)CCCCC(=O)*; dDab = NCC[C@@H](N)C(=O)O; Octanoyl = CCCCCCCC(=O)*; Dab = NCC[C@H](N)C(=O)O; Dap = NC[C@H](N)C(=O)O
What was measured:
Format in all cases: cell-based
[1] = test system: Acinetobacter baumannii ABA19-1; conditions: ABA19-1
In short: (§1)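 Colonies from 18-24 h plates were suspended to 0.5 McFarland and diluted in MH broth. Two-fold compound dilutions were then mixed 1:1 with inoculum to reach 64 to 0.03 mg/L and (2-4) × 10^5 CFU/mL. Plates were sealed and incubated at 35-37°C for 16-20 h, after which the MIC was read.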

[2] = test system: Acinetobacter baumannii NCTC 13304 (OXA-27); conditions: NCTC 13304
In short: as §1

[3] = test system: Escherichia coli ATCC BAA-2340 (KPC); conditions: ATCC BAA-2340
In short: as §1

[4] = test system: Escherichia coli ATCC BAA-2523; conditions: ATCC BAA-2523
In short: as §1

[5] = test system: Klebsiella pneumoniae ATCC BAA-1705 (KPC); conditions: ATCC BAA-1705
In short: as §1

[6] = test system: Klebsiella pneumoniae KPN+19-15; conditions: KPN+19-15
In short: as §1

[7] = test system: Pseudomonas aeruginosa ATCC 27853; conditions: ATCC 27853
In short: as §1

[8] = test system: Pseudomonas aeruginosa PAE19-3; conditions: PAE19-3
In short: as §1

[9] = Nephrotoxicity assay: in vitro cytotoxicity of HK-2 cells by CCK-8 assay; conditions: human, HK-2 cells (human renal), 72 h incubation with drug-containing medium
In short: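 HK-2 human renal cells in RPMI-1640 with 10% FBS were exposed to compounds at final 12.5–500 µg/mL for 72 h, then CCK-8 for 3 h and OD450 read. Viability was normalised to drug-free wells; IC50 came from logarithmic regression over three repeats, with polymyxin B as positive drug.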

SMILES | MIC [1] | MIC [2] | MIC [3] | MIC [4] | MIC [5] | MIC [6] | MIC [7] | MIC [8] | IC50 at 72 h [9]
CC[C@H](C)CCCCC(=O)N[C@@H](CCN)C(=O)N[C@H](C(=O)N[C@@H](CN)C(=O)N[C@H]1CCNC(=O)[C@H]([C@@H](C)O)NC(=O)[C@H](CCN)NC(=O)[C@H](CCN)NC(=O)[C@H]([C@@H](C)O)NC(=O)[C@@H](Cc2ccccc2)NC(=O)[C@H](CCN)NC1=O)[C@@H](C)O [Compound 6, (S)-6-methyloctanoyl-Dab-Thr-Dap-ring(4-10)[Dab-Dab-D-Phe-Thr-Dab-Dab-Thr]] (X1-[Dab]T[Dap][Dab][Dab][dF]T[Dab][Dab]T; lactam 4-C) | ≤0.03 µg/mL | ≤0.03 µg/mL | ≤0.03 µg/mL | ≤0.03 µg/mL | ≤0.03 µg/mL | ≤0.03 µg/mL | 0.03 µg/mL (≈ 0.0255 µM) | 0.125 µg/mL (≈ 0.106 µM) | > 500 µg/mL
CCCCCCCCC(=O)N[C@@H](CN)C(=O)N[C@H](C(=O)N[C@H](CCN)C(=O)N[C@H]1CCNC(=O)[C@H]([C@@H](C)O)NC(=O)[C@H](CCN)NC(=O)[C@H](CCN)NC(=O)[C@H](CC(C)C)NC(=O)[C@@H](CC(C)C)NC(=O)[C@H](CCN)NC1=O)[C@@H](C)O [Compound 100, Nonanoyl-Dap-Thr-D-Dab-ring(4-10)[Dab-Dab-D-Leu-Leu-Dab-Dab-Thr]] (Nonanoyl-[Dap]T[dDab][Dab][Dab][dL]L[Dab][Dab]T; lactam 4-C) | 0.06 µg/mL (≈ 0.0519 µM) | 0.06 µg/mL (≈ 0.0519 µM) | 0.125 µg/mL (≈ 0.108 µM) | 0.125 µg/mL (≈ 0.108 µM) | 0.06 µg/mL (≈ 0.0519 µM) | 0.06 µg/mL (≈ 0.0519 µM) | 1 µg/mL (≈ 0.865 µM) | 1 µg/mL (≈ 0.865 µM) | 117 ± 15.6 µg/mL (≈ 101 µM)
CCCCCCCC(=O)N[C@@H](CN)C(=O)N[C@H](C(=O)N[C@H](CCN)C(=O)N[C@H]1CCNC(=O)[C@H]([C@@H](C)O)NC(=O)[C@H](CCN)NC(=O)[C@H](CCN)NC(=O)[C@H](CC(C)C)NC(=O)[C@@H](Cc2ccccc2)NC(=O)[C@H](CCN)NC1=O)[C@@H](C)O [Compound 93, Octanoyl-Dap-Thr-D-Dab-ring(4-10)[Dab-Dab-D-Phe-Leu-Dab-Dab-Thr]] (Octanoyl-[Dap]T[dDab][Dab][Dab][dF]L[Dab][Dab]T; lactam 4-C) | 0.03 µg/mL (≈ 0.0255 µM) | 0.03 µg/mL (≈ 0.0255 µM) | 0.03 µg/mL (≈ 0.0255 µM) | 0.03 µg/mL (≈ 0.0255 µM) | 0.03 µg/mL (≈ 0.0255 µM) | 0.03 µg/mL (≈ 0.0255 µM) | 1 µg/mL (≈ 0.851 µM) | 1 µg/mL (≈ 0.851 µM) | 239 ± 19.1 µg/mL (≈ 204 µM)
CC(C)CCCCC(=O)N[C@@H](CCN)C(=O)N[C@H](C(=O)N[C@@H](CN)C(=O)N[C@H]1CCNC(=O)[C@H]([C@@H](C)OCS(=O)(=O)O)NC(=O)[C@H](CCN)NC(=O)[C@H](CCN)NC(=O)[C@H]([C@@H](C)O)NC(=O)[C@@H](Cc2ccccc2)NC(=O)[C@H](CCN)NC1=O)[C@@H](C)O [Compound 115, 6-methylheptanoyl-Dab-Thr-Dap-ring(4-10)[Dab-Dab-D-Phe-Thr-Dab-Dab-Thr(CH2SO3H)]] ({Heptanoyl(6-Me)}-[Dab]T[Dap][Dab][Dab][dF]T[Dab][Dab]T(Sulfomethyl); lactam 4-C) | 0.06 µg/mL (≈ 0.0477 µM) | 0.06 µg/mL (≈ 0.0477 µM) | 0.03 µg/mL (≈ 0.0239 µM) | 0.03 µg/mL (≈ 0.0239 µM) | 0.125 µg/mL (≈ 0.0994 µM) | 0.125 µg/mL (≈ 0.0994 µM) | 0.25 µg/mL (≈ 0.199 µM) | 0.25 µg/mL (≈ 0.199 µM) | > 500 µg/mL
CC[C@H](C)CCCCC(=O)N[C@@H](CCN)C(=O)N[C@H](C(=O)N[C@H](CO)C(=O)N[C@H]1CCNC(=O)[C@H]([C@@H](C)O)NC(=O)[C@H](CCN)NC(=O)[C@H](CN)NC(=O)[C@H]([C@@H](C)O)NC(=O)[C@@H](Cc2ccccc2)NC(=O)[C@H](CCN)NC1=O)[C@@H](C)O [Compound 71, (S)-6-methyloctanoyl-Dab-Thr-D-Ser-ring(4-10)[Dab-Dab-D-Phe-Thr-Dap-Dab-Thr]] (X1-[Dab]T[dS][Dab][Dab][dF]T[Dap][Dab]T; lactam 4-C) | 0.06 µg/mL (≈ 0.0515 µM) | ≤0.03 µg/mL | ≤0.03 µg/mL | ≤0.03 µg/mL | 0.25 µg/mL (≈ 0.215 µM) | 0.5 µg/mL (≈ 0.429 µM) | >64 µg/mL | 64 µg/mL (≈ 55 µM) | > 500 µg/mL

Reference: EP4725957A1, “GROUP OF CYCLIC ALKALINE LIPOPEPTIDE COMPOUNDS, AND PREPARATION METHOD THEREFOR AND USE THEREOF” (Institute of Medicinal Biotechnology, Chinese Academy of …, priority 2023, dated 2024)
